Like-named read-outs stand apart in the source and are kept apart here.
Assays:
UGT1A6 = biological target: T1, UGT1A6 (Homo sapiens, UniProt P19224); details: for residual activity 1A6: recombinant human UGT, mean of triplicate
T1 sequence (P19224 27-532): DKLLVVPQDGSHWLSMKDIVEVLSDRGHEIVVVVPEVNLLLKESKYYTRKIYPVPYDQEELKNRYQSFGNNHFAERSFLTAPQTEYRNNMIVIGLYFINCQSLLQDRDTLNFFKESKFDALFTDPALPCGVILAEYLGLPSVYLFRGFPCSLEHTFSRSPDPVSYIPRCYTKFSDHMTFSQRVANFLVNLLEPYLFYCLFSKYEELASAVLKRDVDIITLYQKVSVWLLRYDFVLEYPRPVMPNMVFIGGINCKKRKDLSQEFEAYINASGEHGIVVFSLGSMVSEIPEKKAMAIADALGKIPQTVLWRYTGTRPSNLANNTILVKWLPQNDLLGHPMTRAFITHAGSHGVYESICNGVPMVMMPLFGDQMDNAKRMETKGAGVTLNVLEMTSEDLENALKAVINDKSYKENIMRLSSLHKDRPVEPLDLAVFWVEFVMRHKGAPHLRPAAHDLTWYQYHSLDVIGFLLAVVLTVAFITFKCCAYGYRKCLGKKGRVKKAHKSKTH

UGT2B4 = biological target: T2, UGT2B4 (Homo sapiens, UniProt P06133); assay: UGT2B4 supersomes-catalyzed 4-MU glucuronidation inhibition; details: recombinant human UGT, mean of triplicate
T2 sequence (P06133 24-528): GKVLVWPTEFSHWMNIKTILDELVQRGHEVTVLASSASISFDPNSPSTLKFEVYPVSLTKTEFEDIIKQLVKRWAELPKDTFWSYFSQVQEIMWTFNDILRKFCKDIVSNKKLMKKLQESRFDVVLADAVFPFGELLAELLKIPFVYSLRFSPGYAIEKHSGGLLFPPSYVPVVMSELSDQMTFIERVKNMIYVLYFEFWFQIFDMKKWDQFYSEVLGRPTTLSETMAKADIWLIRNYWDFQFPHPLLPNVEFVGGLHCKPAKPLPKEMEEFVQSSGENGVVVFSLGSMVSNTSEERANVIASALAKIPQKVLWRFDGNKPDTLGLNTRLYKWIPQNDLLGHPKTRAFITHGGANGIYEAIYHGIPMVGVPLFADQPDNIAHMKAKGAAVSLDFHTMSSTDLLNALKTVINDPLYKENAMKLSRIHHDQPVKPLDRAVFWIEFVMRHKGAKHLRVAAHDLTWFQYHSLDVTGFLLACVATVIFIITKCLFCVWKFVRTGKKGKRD

UGT2B7 = biological target: T3, UGT2B7 (Homo sapiens, UniProt P16662); assay: UGT2B7 supersomes-catalyzed 4-MU glucuronidation inhibition; details: for residual activity 2B7: recombinant human UGT, mean of triplicate
T3 sequence (P16662 24-529): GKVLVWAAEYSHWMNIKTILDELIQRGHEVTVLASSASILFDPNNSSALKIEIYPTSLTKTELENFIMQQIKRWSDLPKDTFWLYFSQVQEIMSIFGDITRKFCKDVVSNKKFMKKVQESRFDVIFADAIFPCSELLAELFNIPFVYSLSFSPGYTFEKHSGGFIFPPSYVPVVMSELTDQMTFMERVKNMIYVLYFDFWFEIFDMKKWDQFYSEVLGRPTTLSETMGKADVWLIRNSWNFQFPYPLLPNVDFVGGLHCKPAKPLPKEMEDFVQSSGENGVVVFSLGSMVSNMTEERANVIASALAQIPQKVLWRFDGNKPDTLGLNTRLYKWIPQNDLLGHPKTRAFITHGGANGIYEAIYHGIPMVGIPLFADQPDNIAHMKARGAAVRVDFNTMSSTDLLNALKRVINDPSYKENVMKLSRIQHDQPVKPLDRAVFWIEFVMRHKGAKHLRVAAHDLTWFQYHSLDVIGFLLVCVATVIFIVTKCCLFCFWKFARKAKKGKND

UGT1A1 = biological target: T4, UGT1A1 (Homo sapiens, UniProt P22309); assay: UGT1A1 supersomes-catalyzed 4-MU glucuronidation inhibition; details: recombinant human UGT, mean of triplicate
T4 sequence (P22309 26-533): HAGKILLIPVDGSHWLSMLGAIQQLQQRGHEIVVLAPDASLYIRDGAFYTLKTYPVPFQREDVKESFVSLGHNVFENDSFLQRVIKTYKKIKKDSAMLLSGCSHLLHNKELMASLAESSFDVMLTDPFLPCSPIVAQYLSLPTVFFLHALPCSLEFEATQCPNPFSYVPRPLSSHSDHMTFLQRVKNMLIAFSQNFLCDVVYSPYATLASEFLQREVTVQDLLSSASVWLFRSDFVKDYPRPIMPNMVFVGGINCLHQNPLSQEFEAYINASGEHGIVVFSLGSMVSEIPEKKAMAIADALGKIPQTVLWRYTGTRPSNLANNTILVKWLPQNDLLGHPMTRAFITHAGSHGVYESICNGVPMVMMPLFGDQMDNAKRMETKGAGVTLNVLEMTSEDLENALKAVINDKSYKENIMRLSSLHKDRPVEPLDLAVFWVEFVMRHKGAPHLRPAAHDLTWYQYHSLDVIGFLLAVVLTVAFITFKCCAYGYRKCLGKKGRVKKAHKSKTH

UGT1A7 = biological target: T5, UGT1A7 (Homo sapiens, UniProt Q9HAW7); assay: UGT1A7 supersomes-catalyzed 4-MU glucuronidation inhibition; details: recombinant human UGT, mean of triplicate
T5 sequence (Q9HAW7 26-530): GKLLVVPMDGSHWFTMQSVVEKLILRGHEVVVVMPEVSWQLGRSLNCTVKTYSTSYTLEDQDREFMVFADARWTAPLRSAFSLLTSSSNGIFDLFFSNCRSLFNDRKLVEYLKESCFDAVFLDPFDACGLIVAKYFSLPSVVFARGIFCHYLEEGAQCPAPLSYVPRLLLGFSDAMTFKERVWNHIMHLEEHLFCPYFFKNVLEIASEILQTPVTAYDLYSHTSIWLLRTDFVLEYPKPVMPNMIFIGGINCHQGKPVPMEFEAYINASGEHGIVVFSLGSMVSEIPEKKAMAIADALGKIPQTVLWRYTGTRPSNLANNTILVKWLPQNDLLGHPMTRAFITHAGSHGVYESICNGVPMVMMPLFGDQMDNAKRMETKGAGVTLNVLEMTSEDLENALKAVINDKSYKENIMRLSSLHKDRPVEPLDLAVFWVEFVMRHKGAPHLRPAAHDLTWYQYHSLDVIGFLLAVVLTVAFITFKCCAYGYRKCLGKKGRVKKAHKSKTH

Structure (SMILES)	residual activity 1A6 (UGT1A6; 50 μM PC components)	residual activity 2B4 (UGT2B4; 50 μM PC components)	inhibition percentage of UGT2B7 activity (UGT2B7; 50 μM)	residual activity 2B7 (UGT2B7; 50 μM PC components)	residual activity 1A1 (UGT1A1; 50 μM PC components)	residual activity 1A7 (UGT1A7; 50 μM PC components)	inhibition percentage of UGT1A6 activity (UGT1A6; 50 μM)	residual activity 1A6 (UGT1A6; 50 μM LPC components)	residual activity 2B4 (UGT2B4; 50 μM LPC components)	residual activity 2B7 (UGT2B7; 50 μM LPC components)	residual activity 1A1 (UGT1A1; 50 μM LPC components)	residual activity 1A7 (UGT1A7; 50 μM LPC components)
CCCCCC(=O)OC[C@@H](O)COP(=O)([O-])OCC[N+](C)(C)C [LPC 6:0]	–	–	–	–	–	–	–	72.7%	183.6%	70.0%	176.7%	130.6%
CCCCCCCCCC(=O)OC[C@@H](O)COP(=O)([O-])OCC[N+](C)(C)C [LPC 10:0]	–	–	–	–	–	–	–	65.7%	208.4%	77.3%	170.2%	139.8%

Continued, in another order:

residual activity 1A6 (UGT1A6; 50 μM PC components)	residual activity 2B4 (UGT2B4; 50 μM PC components)	inhibition percentage of UGT2B7 activity (UGT2B7; 50 μM)	residual activity 2B7 (UGT2B7; 50 μM PC components)	residual activity 1A1 (UGT1A1; 50 μM PC components)	residual activity 1A7 (UGT1A7; 50 μM PC components)	inhibition percentage of UGT1A6 activity (UGT1A6; 50 μM)	Structure (SMILES)	residual activity 1A6 (UGT1A6; 50 μM LPC components)	residual activity 2B4 (UGT2B4; 50 μM LPC components)	residual activity 2B7 (UGT2B7; 50 μM LPC components)	residual activity 1A1 (UGT1A1; 50 μM LPC components)	residual activity 1A7 (UGT1A7; 50 μM LPC components)
49.1%	83.4%	76.9%	23.1%	184.9%	135.5%	–	CCCCCCCCCCCCCCCCCCC(=O)OC[C@H](COP(=O)([O-])OCC[N+](C)(C)C)OC(=O)CCCCCCCCCCCCCCCCCC [PC 19:0, 19:0]	–	–	–	–	–
54.3%	179.0%	–	66.1%	208.9%	162.3%	–	CCCCCCCCCCCCCC(=O)OC[C@H](COP(=O)([O-])OCC[N+](C)(C)C)OC(=O)CCCCCCCCCCCCC [PC 14:0, 14:0]	–	–	–	–	–
21.4%	156.7%	–	79.6%	162.3%	137%	78.6%	CCCCCCCCC(=O)OC[C@H](COP(=O)([O-])OCC[N+](C)(C)C)OC(=O)CCCCCCCC [PC 9:0, 9:0]	–	–	–	–	–

— PMC6631349 (Xenobiotica; the fate of foreign compounds in biological …, 2014)
